From patent publication US20160220569A1, “CDK4/6 Inhibitor Dosage Formulations For The Protection Of Hematopoietic Stem And Progenitor Cells During Chemotherapy” (G1 Therapeutics, Inc., priority 2015, published 2016) come the findings set out here.

For data set [1], the system named is bone marrow cells. The data set is described as follows: Bone marrow EdU incorporation (S-phase) after single dose in dogs. It is filed as in vivo. Conditions: increasing single doses, 8 and 16 hours.
Data set [2] deals with Target lesions. Description: Tumor response, Compound 1 with etoposide and carboplatin. It is filed as in vivo, human. Details: Cycle 2 Target Lesion Sum / Cycle4 Target Lesion Sum / Cycle 6 Target Lesion Sum: unit not given here. An excerpt: As shown in FIG. 64 all 6 patients had at least partial responses during the course of 2 to 6 cycles of chemotherapy. Target lesions were summed and response tabulated as follows: […]

Data set [3] is described as follows: 3-compartment model pharmacokinetic analysis, Cohorts 5 and 6. It is filed as in vivo, human. Conditions: for half-life: read-out: γ phase half-life averaged (converted). An excerpt:
The concentration-time profile is represented by a tri-exponential equation similar to the following: […]
Where A, B, and C are the ‘macroconstants’ which are a function of the dose, volume of distribution and the ‘microconstants’ (K12, K21, K13, K31, and K10).
Five of these parameters are rate constants and the 6th is the volume of distribution of the central compartment (V1).

Data set [4] in a line: Hematology (ANC, lymphocytes, hemoglobin, platelets) during etoposide and carboplatin chemotherapy. Conditions: 200 mg/m^2 with etoposide and carboplatin. Type of data set: in vivo, human. From the text:
As shown in FIG. 63A the absolute neutrophil count though affected by chemotherapy rarely dipped below the G1 phase. As shown in FIG. 63B the lymphocyte count though affected by chemotherapy rarely dipped below the G1 phase. As shown in FIG. 63C the hemoglobin concentration though affected by chemotherapy rarely dipped below the G1 phase. As shown in FIG. 63D the platelet count though affected by chemotherapy rarely dipped below the G1 phase.

Where [5] appears, read: Compound 1 200 mg/m^2 followed by etoposide and carboplatin, individual subjects.
Setting [6] is: Cohort 5, 96 mg/m^2, 3-compartment primary parameter, subjects 1-6, Mean, Median, mean.

Values joined by “and” are separate entries in the source; they are usually repeats but may differ in a detail not shown here. Identical values can stand only once. Like-named read-outs stand apart in the source and are kept apart here.

As usually defined, the Cmax is the highest concentration seen after dosing. By half-life is commonly meant how long it takes for the measured level to halve. Regarding `CN1CCN(c2ccc(Nc3ncc4cc5n(c4n3)C3(CCCCC3)CNC5=O)nc2)CC1` [Compound 1, 2′-((5-(4-methylpiperazin-1-yl)pyridin-2-yl)amino)-7′,8′-dihydro-6′H-spiro[cyclohexane-1,9′-pyrazino[1′,2′:1,5]pyrrolo[2,3-d]pyrimidin]-6′-one], the “bone marrow cells in S phase” value in data set [1] is “decrease in the number of cells in S phase”. Moreover, in data set [2] (setting [5]), the “Cycle 2 Target Lesion Sum” value was 74 and 22 and 76 and 161 and 50 and 35; the “Cycle4 Target Lesion Sum” value is 54 and 0 (2×) and 62 and 146; the “Cycle 6 Target Lesion Sum” value is 47 and 0. In data set [2] (Compound 1 200 mg/m^2 with etoposide and carboplatin, 2 to 6 cycles, 6 patients), the “patients with at least partial responses” value amounted to 6 patients. In data set [3] (setting [6]), this compound displayed a Beta of 0.388 h⁻¹, a Gamma of 0.0502 h⁻¹ and a K31 of 0.0692 h⁻¹. Further, the Cmax in data set [3] (both sexes, human, plasma, intravenous, 96 mg/m2, Cohort 5, 96 mg/m^2, 3-compartment secondary (derived) parameter, six subjects, Mean, Median, read-out: Cmax) came out at 991 ng/mL. Besides, the half-life in data set [3] (both sexes, human, plasma, intravenous, 96 mg/m2, 96 mg/m^2, 3-compartment model, mean) was 14.2 h. Moreover, the half-life in data set [3] (both, human, plasma, intravenous, […]2) is 14 h. The “myelotoxicity (ANC, lymphocyte count, hemoglobin, platelet count)” value in data set [4] is “no clinically relevant myelotoxicity”.
